Assay results from patent publication US12263248B2, “Compounds and compositions for intracellular delivery of therapeutic agents” (ModernaTX, Inc., priority 2018, dated 2025).

Experiments:
[1] = Encapsulation efficiency of RNA (QUANT-IT RIBOGREEN RNA assay); type: physicochemical; details: for EE (%): Table 1A
Outline: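 RiboGreen fluorescence (ex ~480, em ~520 nm) compared between intact samples and Triton X-100-lysed samples after 15 min at 37 °C in TE buffer, pH 7.5. Percent free RNA is the blank-corrected intact/disrupted ratio.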

[2] = Apparent (surface) pKa of the LNP formulation (TNS assay); type: physicochemical; details: for pKa: Table 1A
Outline: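 LNP (0.04 mg/mL mRNA) mixed with TNS reagent in 21 buffers spanning about pH 3-12, in triplicate; fluorescence plotted against pH as sigmoidal curve. Apparent pKa taken as […] curve inflection point; validated in 1× PBS and 20 mM Tris w/8% sucrose.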

hEPO mRNA = test: hEPO expression after subcutaneous administration to mice; type: in vivo, female CD-1 mice; details: for hEPO expression Lipid/Compound 18 ratio, 6 hr. / hEPO expression Lipid/Compound 18 ratio, AUC: 0.5 mpk; for Novel lipid/MC3 expression ratio, 6 hr. time point, s.c. hEPO 0.5 mpk: relative to MC3
Description: (§1) The effect of the lipids of the disclosure on protein expression upon subcutaneous administration was studied. Formulations containing lipids of the disclosure and an mRNA expressing luciferase or hEPO were administered subcutaneously to female CD-1 mice at 0.5 mpk. Expression levels were obtained via whole body luminescent imaging (BLI) at 3, 6 and 24 hours after injection and expression levels in liver, spleen and at the injection site were evaluated ex vivo after 24 hours. […] See also Tables 35 and 36, and FIGS. 19 and 27.
Table 36 summarizes the hEPO expression levels using various nanoparticle compositions of the disclosure as compared to the hEPO expression level using a formulation containing MC3 or Compound 18, following subcutaneous administration, as described above.

[3] = Particle size and polydispersity index of nanoparticle compositions (Zetasizer Nano ZS); type: physicochemical
Outline: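 In 1×PBS, the compositions were sized on a Zetasizer Nano ZS, which also reported their polydispersity index.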

[4] = Lipid clearance: lipid level in mouse liver tissue (LC-MS/MS); type: in vivo; details: for % Remaining dose at 6 h / % Remaining dose at 24 h: Table 3E, mouse liver; for % Dose Remaining in Liver 6 h: Table 3D, intravenous
Description: Quantification of Lipid by LC-MS/MS: Liver samples were homogenized following addition of 19 eq. (w/v) of water (DF=20). Protein was precipitated and analyzed against calibration standards prepared in matching blank. Chromatographic separation and quantification was accomplished with a LC-MS/MS System. Samples were injected and separated via HPLC A triple-quadrupole MS/MS system operated in positive ion mode was used for signal detection.

luciferase (Luc) mRNA [5] = test: Luc expression, whole body bioluminescence after intravenous administration to mice; type: in vivo; details: for 6 h BLI Lipid/MC3: Table 3E; for 6 h BLI Lipid/MC3 / Lipid/MC3 AUC / AUC (p/s * h) / Novel lipid/MC3 ratio, 6 hr. timepoint, i.v.: intravenous; for Lipid/MC3 AUC / AUC (p/s * h): Table 3D; for AUC (p/s * h): Luc; for Novel lipid/MC3 ratio, 6 hr. timepoint, i.v.: luciferase, relative to MC3, Table 3G; for Total Flux 3 hours / Total Flux 6 hours / Total Flux 24 hours: mice, i.v., 0.5 mg/kg, Luc mRNA
Outline: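 Luc mRNA nanoparticle formulations given intravenously to mice (n=6) at 0.5 mg/kg; whole-body bioluminescence imaged at 3, 6 and 24 h. CD-1 mice received IP D-luciferin (200 μL of 15 mg/mL) 15 min before imaging; total flux quantified by region of interest.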

luciferase (Luc) mRNA [6] = test: Luc expression (total flux) after intramuscular administration; type: in vivo, mice
Outline: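 Mice given a single intramuscular dose of lipid nanoparticle formulations carrying modified Luc mRNA, alone or with H10 mRNA, at 0.001 or 0.01 mpk total. Luciferase expression recorded as total flux.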

luciferase mRNA = test: Luciferase expression after subcutaneous administration to mice; type: in vivo, female CD-1 mice; details: 0.5 mpk, relative to MC3
Description: as §1
Table 35 summarizes the luciferase expression levels using various nanoparticle compositions of the disclosure, and the luciferase expression levels using various nanoparticle compositions of the disclosure as compared to the luciferase expression level using an MC3 formulation after subcutaneous administration, as described above.

luciferase (Luc) mRNA [7] = test: Luc expression in liver, lung, spleen and femur 6 hours after intravenous administration; type: in vivo; details: mice, 0.5 mpk; for Total Flux Liver / Total Flux Lung / Total Flux Spleen: intravenous
Outline: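 LNP-formulated mRNA given IV to mice (n=3) at 0.5 mpk; at 6 h, bioluminescence imaged ex vivo 15 min after IP D-luciferin (15 mg/mL, 200 μL), organs imaged within 25 min. Values are total flux by region of interest.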

[8] = Table 1D, for subcutaneous administration, # formulated with hEPO mRNA
[9] = Table 1A, lipid:DSPC:cholesterol:PEG-DMG 50:10:38.5:1.5 mol %
[10] = Table 1E, compositions for subcutaneous administration
[11] = second column (head also says 6 h)

Row | SMILES | EE (%) [1] | % EE [1, 8] | pKa [2] | hEPO expression Lipid/Compound 18 ratio, 6 hr. (hEPO mRNA) | hEPO expression Lipid/Compound 18 ratio, AUC (hEPO mRNA) | PDI ([3]; Table 1A) | Size (nm) [3, 9] | PDI [3, 8] | Size (nm) [3, 8] | % Remaining dose at 6 h [4] | % Remaining dose at 24 h [4] | 6 h BLI Lipid/MC3 (luciferase (Luc) mRNA [5]) | other results
1 | CCCCCCCCCOC(=O)C(C)CCCCCCN(CCO)CCCCCCCC(=O)OC(CCCCCCCC)CCCCCCCC (centres unmarked) [Compound 164, Nonyl 8-((8-(heptadecan-9-yloxy)-8-oxooctyl)(2-hydroxyethyl)amino)-2-methyloctanoate] | 91.2% | 94.1% | 6.39 | 0.50 | 0.56 | 0.13 | 84.5 nm | 0.08 | 75.7 nm | 39.0% | 26.2% | 1.24 | –
2 | CCCCCCCCCC(=O)OC(C)CCCCCCN(CCO)CCCCCCCC(=O)OC(CCCCCCCC)CCCCCCCC (centres unmarked) [Compound 98, 8-((8-(Heptadecan-9-yloxy)-8-oxooctyl)(2-hydroxyethyl)amino)octan-2-yl decanoate] | 94.4% | 93.8% | 6.53 | 0.69 | 0.69 | – | – | 0.14 | 74.8 nm | 26.8% | 14.7% | 3.16 | –
3 | CCCCCCCCCC(=O)OC(C)CCCCCCN(CCO)CCCCCCCOC(=O)C(CCCCCCCC)CCCCCCCC (centres unmarked) [Compound 165, 7-((7-(Decanoyloxy)octyl)(2-hydroxyethyl)amino)heptyl 2-octyldecanoate] | 92.9% | 93.5% | 6.50 | 0.63 | 0.64 | 0.14 | 84.6 nm | 0.14 | 74.3 nm | 29.1% | 12.7% | 2.12 | –
4 | CCCCCCCCCOC(=O)CCCCCCCN(CCCCCCCC(=O)OC(CCCCCCCC)CCCCCCCC)CCCNC(=N)N [Compound 207, Heptadecan-9-yl 8-((3-guanidinopropyl)(8-(nonyloxy)-8-oxooctyl)amino)octanoate] | – | 102% | – | – | – | – | – | 0.22 | 81.4 nm | – | – | – | Novel lipid/MC3 expression ratio, 6 hr. time point, s.c. hEPO 0.5 mpk (hEPO mRNA): 0
5 | CCCCCCCCCOC(=O)CCCCCCCN(CCCCCCCC(=O)OC(CCCCCCCC)CCCCCCCC)CCCN/C(=N/C#N)N(C)C [Compound 168, Heptadecan-9-yl (Z)-8-((3-(2-cyano-3,3-dimethylguanidino)propyl)(8-(nonyloxy)-8-oxooctyl)amino)octanoate] | 91.4% | 96.1% | 6.74 | – | – | 0.20 | 102.3 nm | 0.07 | 87.4 nm | – | – | – | % EE [1, 10]: 95%; App. pKa ([2]; Table 3F): 6.90; Novel lipid/MC3 expression ratio, 6 hr. time point, s.c. hEPO 0.5 mpk (hEPO mRNA): 2.36; i.m. Lipid/MC3 0.01 mpk, Luc, 6 h (luciferase (Luc) mRNA [6]; Table 3B, i.m., 0.01 mpk, 6 h): 16.0; flux measured at 6 h relative to the MC3 formulation (luciferase (Luc) mRNA [6]; intramuscular administration (i.m.), in words): sixteen; PDI [3, 10]: 0.08; Size (nm) [3, 10]: 85.0 nm; Novel lipid/MC3 expression ratio, 6 hr. time point, s.c. Luc 0.5 mpk (luciferase mRNA): 0.58
6 | CCCCCCCCCOC(=O)C(C)CCCCCCN(CCO)CCCCCCCOC(=O)C(CCCCCCCC)CCCCCCCC (centres unmarked) [Compound 163, 7-((2-Hydroxyethyl)(7-methyl-8-(nonyloxy)-8-oxooctyl)amino)heptyl 2-octyldecanoate] | 93.2% | 92.8% | 6.41 | 0.99 | 0.96 | 0.10 | 88.3 nm | 0.10 | 78.0 nm | 34.8% | 19.4% | 3.45 | –
7 | CCCCCCCCCC(=O)OCCCCCCCN(CCO)CCCCCCCC(=O)OC(CCCCCCCC)CCCCCCCC [Compound 96, 7-((8-(Heptadecan-9-yloxy)-8-oxooctyl)(2-hydroxyethyl)amino)heptyl decanoate] | 79.04% | 94.4% | 6.600 | 1.98 | 1.72 | 0.160 | 120.5 nm | 0.14 | 82.6 nm | – | – | – | % Dose Remaining in Liver 6 h [4, 11]: <1%; % Dose Remaining in Liver 6 h [4]: <1%; Flux in the liver (luciferase (Luc) mRNA [7]; i.v., in words): highest; Total Flux Liver (luciferase (Luc) mRNA [7]): 1.56E+10; Total Flux Lung (luciferase (Luc) mRNA [7]): 3.43E+07; Total Flux Spleen (luciferase (Luc) mRNA [7]): 3.39E+08; Lipid/MC3 AUC (luciferase (Luc) mRNA [5]): 6.3; AUC (p/s * h) (luciferase (Luc) mRNA [5]): 1.209E+012 p/s * h; Novel lipid/MC3 ratio, 6 hr. timepoint, i.v. (luciferase (Luc) mRNA [5]): 6.11; Total Flux 3 hours (luciferase (Luc) mRNA [5]): 4.54E+10; Total Flux 6 hours (luciferase (Luc) mRNA [5]): 1.05E+11; Total Flux 24 hours (luciferase (Luc) mRNA [5]): 3.86E+09
8 | CCCCCCCCCC(=O)OCCCCCCCN(CCO)CCCCCCCOC(=O)C(CCCCCCCC)CCCCCCCC [Compound 151, 7-((7-(Decanoyloxy)heptyl)(2-hydroxyethyl)amino)heptyl 2-octyldecanoate] | 87.86% | 95.4% | 6.593 | 0.73 | 0.71 | 0.140 | 105.7 nm | 0.13 | 77.6 nm | – | – | – | Apparent pKa ([2]; Table 3G): 6.59; % Dose Remaining in Liver 6 h [4, 11]: <1%; % Dose Remaining in Liver 6 h [4]: <1%; Total Flux Liver (luciferase (Luc) mRNA [7]): 4.72E+09; Total Flux Lung (luciferase (Luc) mRNA [7]): 9.20E+06; Total Flux Spleen (luciferase (Luc) mRNA [7]): 9.27E+07; Lipid/MC3 AUC (luciferase (Luc) mRNA [5]): 3.7; AUC (p/s * h) (luciferase (Luc) mRNA [5]): 7.010E+011 p/s * h; Novel lipid/MC3 ratio, 6 hr. timepoint, i.v. (luciferase (Luc) mRNA [5]): 3.29; Total Flux 3 hours (luciferase (Luc) mRNA [5]): 5.63E+10; Total Flux 6 hours (luciferase (Luc) mRNA [5]): 5.68E+10; Total Flux 24 hours (luciferase (Luc) mRNA [5]): 2.23E+09
